For orientation: pIC50 means −log10 of the IC50, conventionally taken in molar units.

Results on 35 compounds are retold here after patent US11053253B2, “Macrocyclic compounds for treatment of medical disorders” (Achillion Pharmaceuticals, Inc., priority 2017, dated 2021).

pIC50: −log10 of the molar value.

Chain of Human Factor D (P00746 26-253): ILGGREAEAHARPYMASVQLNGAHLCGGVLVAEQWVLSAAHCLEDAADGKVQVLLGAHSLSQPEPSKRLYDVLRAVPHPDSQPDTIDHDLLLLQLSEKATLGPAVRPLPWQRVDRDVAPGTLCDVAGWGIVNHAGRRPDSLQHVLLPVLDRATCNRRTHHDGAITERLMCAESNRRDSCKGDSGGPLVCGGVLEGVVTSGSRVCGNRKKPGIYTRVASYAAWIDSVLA

The assay deals with Human Factor D (Homo sapiens (Human), UniProt P00746). The experiment in a line: Human Factor D Assay. Format: biochemical. The settings on record: Human Factor D 80 nM, substrate Z-L-Lys-SBzl, DTNB, A405; read-out: IC50 (Stars). In outline:
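Serum-purified enzyme (80 nM final) was preincubated with compound 5 min at room temperature in 50 mM Tris, 1M NaCl, pH 7.5. Z-L-Lys-SBzl and DTNB ([…] each, final) were added and A405 followed every 30 s for 30 min; IC50 from nonlinear regression of reaction rates.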
Consider `CC(=O)c1nn(CC(=O)N2[C@H]3C[C@]4(C[C@@H]24)Cn2cc(nn2)COCc2ccc(Br)nc2NC3=O)c2cnccc12` [Compound T-27, (31R,33S,35R,Z)-32-(2-(3-acetyl-1H-pyrazolo[3,4-c]pyridin-1-yl)acetyl)-66-bromo-11H-8-oxa-32,5-diaza-6(2,3)-pyridina-1(1,4)-triazola-3(5,3)-bicyclo[3.1.0]hexanacyclononaphan-4-one], for which the negative-log IC50 (pIC50) is > 6.00.
Then `CC(=O)c1nn2c3c(cc(-c4cnc(C)nc4)cc13)C=CCCCCCN(C)C[C@@]13C[C@@H](C(=O)Nc4nc(Br)ccc4C)N(C(=O)C2)[C@@H]1C3` [Compound T-58], with > 6.00; and `CC(=O)c1nn2c3c(cc(-c4cnc(C)nc4)cc13)CCCCCCC(=O)NC[C@@]13C[C@@H](C(=O)Nc4cccc(-c5cc(F)c(F)cc5Cl)c4F)N(C(=O)C2)[C@@H]1C3` [Compound T-222], with > 6.00; and `CC(=O)c1nn2c3c(cc(-c4cnc(C)nc4)cc13)CCCCCCC=Cc1cn(nn1)C[C@@]13C[C@@H](C(=O)Nc4nc(Br)ccc4C)N(C(=O)C2)[C@@H]1C3` [Compound T-49], with > 6.00.
With `CC(=O)c1nn(CC(=O)N2[C@H]3C[C@]4(C[C@@H]24)CN(C)CCCCC=Cc2ccc(Br)nc2NC3=O)c2cnccc12` [Compound T-13, (41R,43S,45R)-42-(2-(3-acetyl-1H-pyrazolo[3,4-c]pyridin-1-yl)acetyl)-16-bromo-6-methyl-42,2,6-triaza-1(2,3)-pyridina-4(3,5)-bicyclo[3.1.0]hexanacyclododecaphan-11-en-3-one], the pIC50 is > 6.00.
Turning to `CC(=O)c1nn(CC(=O)N2[C@H]3C[C@@]4(C=CCCCCN(C)C(=O)Cc5ccc(Br)nc5NC3=O)C[C@@H]24)c2ccc(-c3cnc(C)nc3)cc12` [Compound T-19, (41R,43S,45R)-42-(2-(3-acetyl-5-(2-methylpyrimidin-5-yl)-1H-indazol-1-yl)acetyl)-16-bromo-11-methyl-42,2,11-triaza-1(2,3)-pyridina-4(3,5)-bicyclo[3.1.0]hexanacyclotridecaphan-5-ene-3,12-dione], the pIC50 was > 6.00.
To `CC(=O)c1nn(CC(=O)N2[C@H]3C[C@@]4(C=CCCCCCCc5ccc(Br)nc5NC3=O)C[C@@H]24)c2ccc(-c3cnc(C)nc3)cc12` [Compound T-48] belongs > 6.00; to `CC(=O)c1nn(CC(=O)N2[C@H]3C[C@@]4(CNC(=O)C(C)(C)CCCCCc5ccc(Br)nc5NC3=O)C[C@@H]24)c2ccc(-c3cnc(C)nc3)cc12` [Compound T-182], > 6.00.
Consider `CC(=O)c1nn2c3c(cc(-c4cnc(C)nc4)cc13)CCCCCC(C)(C)C(=O)N(C)C[C@@]13C[C@@H](C(=O)Nc4ccn(CC(F)(F)F)n4)N(C(=O)C2)[C@@H]1C3` [Compound T-191], for which the pIC50 is > 6.00.
Then `CC(=O)c1nn(CC(=O)N2C[C@@]3(F)COCCCCCCCCc4ccc(Br)nc4NC(=O)[C@@H]2C3)c2cnc(-c3cnc(C)nc3)cc12` [Compound T-239], with > 6.00; and `CC(=O)c1nn2c3c(cc(-c4cnc(C)nc4)cc13)CCCCCCCCOC[C@@]13C[C@@H](C(=O)Nc4nc(Br)ccc4C)N(C(=O)C2)[C@@H]1C3` [Compound T-23, (41R,43S,45S)-13-acetyl-N-(6-bromo-3-methylpyridin-2-yl)-15-(2-methylpyrimidin-5-yl)-3-oxo-11H-6-oxa-42-aza-1(1,7)-indazola-4(2,5)-bicyclo[3.1.0]hexanacyclotetradecaphane-43-carboxamide], with > 6.00; and “(41R,43S,45R)-42-(2-(3-acetyl-5-(2- methylpyrimidin-5-yl)-1H-indazol-1- yl)acetyl)-16-bromo-6-methyl-7-thia-42,6- diaza-1(2,3)-pyridina-4(3,5)- bicyclo[3.1.0]hexanacycloundecaphan-10- en-3-one 7,7-dioxide [Compound T-17]”, with > 6.00.
Then `CC(=O)c1nn2c3c(cc(-c4cnc(C)nc4)cc13)CCCCCCC(=O)NC[C@@]13C[C@@H](C(=O)Nc4cc(C)c(F)c(Br)n4)N(C(=O)C2)[C@@H]1C3` [Compound T-218], with > 6.00; and `COc1cc(Br)nc(NC(=O)[C@@H]2C[C@]34CNC(=O)CCCCCCc5cc(-c6cnc(C)nc6)cc6c(C(C)=O)nn(c56)CC(=O)N2[C@@H]3C4)c1` [Compound T-210], with > 6.00.
On to `CC(=O)c1nn(CC(=O)N2[C@H]3C[C@@]4(CNC(=O)C(C)(C)C=CCOCc5ccc(Br)nc5NC3=O)C[C@@H]24)c2ccc(-c3cnc(C)nc3)cc12` [Compound T-131], for which the pIC50 was > 6.00.
Then `CC(=O)c1nn(CC(=O)N2[C@H]3C[C@@]4(CCCCCCCN(C)Cc5ccc(Br)nc5NC3=O)C[C@@H]24)c2cnc(-c3cnc(C)nc3)cc12` [Compound T-98], with > 6.00; and `CC(=O)c1nn(CC(=O)N2C[C@@]3(F)CNC(=O)CCCCCOCc4ccc(Br)nc4NC(=O)[C@@H]2C3)c2cnc(-c3cnc(C)nc3)cc12` [Compound T-169], with > 6.00; and `CC(=O)c1nn(CC(=O)N2[C@H]3C[C@@]4(CNC(=O)C(C)(C)CCCOCc5ccc(C(F)(F)F)nc5NC3=O)C[C@@H]24)c2ccc(-c3cnc(C)nc3)cc12` [Compound T-236], with > 6.00.
Regarding `CC(=O)c1nn2c3c(cc(-c4cnc(C)nc4)cc13)CCCCCCC(=O)NC[C@@]13C[C@@H](C(=O)N[C@@H](C)COC(F)(F)F)N(C(=O)C2)[C@@H]1C3` [Compound T-206], the pIC50 was > 6.00.
Then `CC(=O)c1nn2c3c(cc(-c4cnc(C)nc4)cc13)CCCCCCC(=O)NC[C@@]13C[C@@H](C(=O)Nc4cc(C)cc(Br)n4)N(C(=O)C2)[C@@H]1C3` [Compound T-190], with > 6.00; and `CC(=O)c1nn(CC(=O)N2[C@H]3C[C@@]4(COCC=CCOCc5ccc(Br)nc5NC3=O)C[C@@H]24)c2c(C)cccc12` [Compound T-12, (41R,43S,45S)-42-(2-(3-acetyl-7-methyl-1H-indazol-1-yl)acetyl)-16-bromo-6,11-dioxa-42,2-diaza-1(2,3)-pyridina-4(3,5)-bicyclo[3.1.0]hexanacyclododecaphan-8-en-3-one], with > 6.00; and `CC(=O)c1nn(CC(=O)N2[C@H]3C[C@@]4(COC/C=C\COCc5ccc(Br)nc5NC3=O)C[C@@H]24)c2cnc(-c3cnc(C)nc3)cc12` [Compound T-45], with > 6.00.
Then `CC(=O)c1nn(CC(=O)N2[C@H]3C[C@@]4(CNC(=O)C(C)(C)CCCOCc5ccc(C(F)(F)F)nc5NC3=O)C[C@@H]24)c2cnc(-c3cnc(C)nc3)cc12` [Compound T-225], with > 6.00.
To `CC(=O)c1nn(CC(=O)N2[C@H]3C[C@]4(C[C@@H]24)CN(C)CCCCC=Cc2ccc(Br)nc2NC3=O)c2ccc(-c3cnc(C)nc3)cc12` [Compound T-8, (41R,43S,45R)-42-(2-(3-acetyl-5-(2-methylpyrimidin-5-yl)-1H-indazol-1-yl)acetyl)-16-bromo-6-methyl-42,2,6-triaza-1(2,3)-pyridina-4(3,5)-bicyclo[3.1.0]hexanacyclododecaphan-11-en-3-one] belongs > 6.00; to `CC(=O)c1nn2c3c(cc(-c4cnc(C)nc4)cc13)CCCCCCC(=O)NC[C@@]13C[C@@H](C(=O)NCCOC(F)(F)F)N(C(=O)C2)[C@@H]1C3` [Compound T-208], > 6.00.
Take `CC(=O)c1nn(CC(=O)N2[C@H]3C[C@]4(C[C@@H]24)CN(C)CC=CCOCc2ccc(Br)nc2NC3=O)c2ccc(-c3cnc(C)nc3)cc12` [Compound T-6, (41R,43S,45R)-42-(2-(3-acetyl-5-(2-methylpyrimidin-5-yl)-1H-indazol-1-yl)acetyl)-16-bromo-6-methyl-11-oxa-42,2,6-triaza-1(2,3)-pyridina-4(3,5)-bicyclo[3.1.0]hexanacyclododecaphan-8-en-3-one]: the pIC50 is > 6.00.
Take `CC(=O)c1nn(CC(=O)N2[C@H]3C[C@@]4(COCC=CCOCc5ccc(Br)nc5NC3=O)C[C@@H]24)c2c(C)cc(-c3cnc(C)nc3)cc12` [Compound T-192]: the pIC50 is > 6.00.
Then `CC(=O)c1nn2c3c(cc(-c4cnc(C)nc4)cc13)CCCCCC(C)(C)C(=O)NC[C@@]13C[C@@H](C(=O)Nc4ccn(CC(F)(F)F)n4)N(C(=O)C2)[C@@H]1C3` [Compound T-185], with > 6.00; and `CC(=O)c1nn(CC(=O)N2[C@H]3C[C@@]4(CNC(=O)C(C)(C)CCCCCc5ccc(Br)nc5NC3=O)C[C@@H]24)c2cnc(-c3cnc(C)nc3)cc12` [Compound T-180], with > 6.00; and `CC(=O)c1nn2c3c(cc(-c4cnc(C)nc4)cc13)CCCCCCC(=O)NC[C@@]13C[C@@H](C(=O)N[C@H](C)c4ccccc4)N(C(=O)C2)[C@@H]1C3` [Compound T-188], with > 6.00.
To `COc1cc(NC(=O)[C@@H]2C[C@]34CNC(=O)CCCC=CCc5cc(-c6cnc(C)nc6)cc6c(C(C)=O)nn(c56)CC(=O)N2[C@@H]3C4)nc(Br)c1F` [Compound T-229] belongs > 6.00.
Turning to `CC(=O)c1nn(CC(=O)N2[C@H]3C[C@@]4(COCCCCCCc5ccc(Br)nc5NC3=O)C[C@@H]24)c2ccc(-c3cnc(C)nc3)cc12` [Compound T-39], the pIC50 is > 6.00.
Take `CC(=O)c1nn(CC(=O)N2[C@H]3C[C@]4(C[C@@H]24)CN(C)CCCCCCCc2ccc(Br)nc2NC3=O)c2c(C)cc(-c3cnc(C)nc3)cc12` [Compound T-71]: the pIC50 was > 6.00.
Then `CC(=O)c1nn2c3c(cc(-c4cnc(C)nc4)cc13)CCCCCCC(=O)NC[C@@]13C[C@@H](C(=O)NCC(F)=C(C)C)N(C(=O)C2)[C@@H]1C3` [Compound T-198], with > 6.00; and `CC(=O)c1nn(CC(=O)N2[C@H]3C[C@]4(C[C@@H]24)Cn2cc(nn2)COCc2ccc(Br)nc2NC3=O)c2ccc(-c3cnc(C)nc3)cc12` [Compound T-18, (31R,33S,35R,Z)-32-(2-(3-acetyl-5-(2-methylpyrimidin-5-yl)-1H-indazol-1-yl)acetyl)-66-bromo-11H-8-oxa-32,5-diaza-6(2,3)-pyridina-1(1,4)-triazola-3(5,3)-bicyclo[3.1.0]hexanacyclononaphan-4-one], with > 6.00.
